Marks after values point to notes of the source that are not given here.
Key:
mouse hepatocytes = assay: Metabolic stability in mouse hepatocytes; type: in vitro ADME
Description: (§1) The in vitro metabolic half-life (t1/2) is calculated using the slope of the log−linear regression from the percentage of the parent compound remaining versus the time relationship (κ). The experimental details are reported in the Supporting Information (Tables S6 and S7).

[1] = Metabolic stability in mouse hepatocytes; type: in vitro ADME; conditions: mouse hepatocytes
Description: as §1

[2] = LogD, 1-octanol/phosphate buffer pH 7.4; type: physicochemical
hERG channel = hERG channel (Homo sapiens, UniProt Q12809); assay: hERG inhibition manual patch-clamp assay (HEK293)
hERG channel, sequence (Q12809 whole entry): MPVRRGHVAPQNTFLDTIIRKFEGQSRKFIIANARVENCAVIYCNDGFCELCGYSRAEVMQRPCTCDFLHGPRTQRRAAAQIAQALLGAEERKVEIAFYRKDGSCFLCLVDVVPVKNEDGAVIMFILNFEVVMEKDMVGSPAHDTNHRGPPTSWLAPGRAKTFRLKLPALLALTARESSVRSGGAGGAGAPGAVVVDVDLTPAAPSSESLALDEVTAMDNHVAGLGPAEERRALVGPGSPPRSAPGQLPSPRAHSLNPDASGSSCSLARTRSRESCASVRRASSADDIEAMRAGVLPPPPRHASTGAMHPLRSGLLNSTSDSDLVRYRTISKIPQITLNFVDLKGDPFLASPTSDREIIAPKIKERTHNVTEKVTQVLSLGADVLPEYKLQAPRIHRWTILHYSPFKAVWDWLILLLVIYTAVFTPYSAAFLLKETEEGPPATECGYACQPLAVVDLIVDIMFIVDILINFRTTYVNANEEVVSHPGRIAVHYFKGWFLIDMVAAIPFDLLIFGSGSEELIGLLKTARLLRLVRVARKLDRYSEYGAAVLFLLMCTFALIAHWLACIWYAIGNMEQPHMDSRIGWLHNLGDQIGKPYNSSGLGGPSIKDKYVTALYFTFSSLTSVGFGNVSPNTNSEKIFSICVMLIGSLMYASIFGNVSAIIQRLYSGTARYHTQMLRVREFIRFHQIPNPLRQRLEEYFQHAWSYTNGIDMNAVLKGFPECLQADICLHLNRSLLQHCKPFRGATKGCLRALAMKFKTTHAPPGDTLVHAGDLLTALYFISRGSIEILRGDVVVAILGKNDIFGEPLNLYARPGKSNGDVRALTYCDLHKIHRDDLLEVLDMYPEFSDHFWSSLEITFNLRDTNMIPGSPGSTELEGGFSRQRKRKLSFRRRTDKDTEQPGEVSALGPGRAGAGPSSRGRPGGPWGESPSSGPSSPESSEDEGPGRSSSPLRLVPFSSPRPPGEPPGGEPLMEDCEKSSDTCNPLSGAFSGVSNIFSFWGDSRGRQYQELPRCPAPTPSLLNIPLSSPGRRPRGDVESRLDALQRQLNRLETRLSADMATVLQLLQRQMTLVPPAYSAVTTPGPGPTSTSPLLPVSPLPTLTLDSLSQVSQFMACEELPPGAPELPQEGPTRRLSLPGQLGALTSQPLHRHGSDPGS

mouse sperm = assay: Sperm motility after intraperitoneal administration to mice; type: in vivo; conditions: intraperitoneal 40 mg/kg for three days
Description: To determine whether our compounds had in vivo activity, we tested the effect of 45 after intraperitoneal administration to mice. Compound 45 was injected at a dose of 40 mg/kg for three days. This procedure is based on our previous protocol used for ouabain derivatives. After treatment for 3 days, the animals were sacrificed, sperm was isolated from the cauda epididymis, and sperm motility was assessed using CASA. Compound 45 inhibited total sperm motility by approximately 60% (Figure 9A).
Compound 45 was administered to mice by intraperitoneal injection at a dose of 40 mg/kg of body weight for three days. This protocol was used based on our previous results. At day 3 of treatment, the animals were sacrificed, and sperm was collected from the caudal section of the epididymis. Sperm was incubated under non-capacitating and capacitating conditions, and total and hyperactive sperm motility was determined using CASA.
Figure 9 Effect of compound 45 on total (A) and hyperactive (B) sperm motility in mice in vivo. 45 was administered via intraperitoneal injection at a dosage of 40 mg/kg of body weight for 3 days. Total and hyperactive sperm motility was assessed using sperm from the cauda epididymis. Hyperactive motility was evaluated after incubating the cells in a medium that supports sperm capacitation for 1 h. Sperm motility was analyzed using CASA. […]

[3] = Stability in PBS (pH 7.4); type: physicochemical; conditions: PBS pH 7.4, compound remaining after 60 min
Description: Solubility, permeability, compound stability, metabolic stability, and toxicity studies were performed at Pharmaron (Waltham, MA, USA).

Caco-2 cell permeability = type: in vitro ADME, human; conditions: human
Description: The in vitro permeability and potential to be transported by P-gp (P-glycoprotein) were determined in a Caco-2 or MDCK cell line. Values are reported for a mass recovery > 60%. The efflux ratio was determined as follows: P^app(B-A)/Papp(A-B). The experimental details are reported in the Supporting Information (Tables S2–S5).
The recovery can be determined using the following equation:
Recovery%=(VA×[drug]acceptor+VD×[drug]donor)/(VD×[drug]initial, donor)
Where VA is the volume (in mL) in the acceptor well (0.235 mL for Ap→Bl flux, and 0.075 mL for
Bl→Ap), VD is the volume (in mL) in the donor well (0.075 mL for Ap→Bl flux, and 0.235 mL for
The leakage of Lucifer Yellow, in unit of percentage (%), can be calculated using the following
%LY leakage = 100×[LY]acceptor×0.3/([LY]donor×0.1+[LY]acceptor×0.3)
LY leakage of <1% is acceptable to indicate the well-qualified MDCK/ Caco-2 monolayer.
Table S5 . The Assessment of Caco-2 Cell Monolayer Integrity
The apparent permeability coefficient (Papp), Efflux ratio (ER), recovery percentage, and LY leakage percentage can be
calculated for Caco-2 Cell drug transport assays using the above equations. […]

human hepatocytes = assay: Metabolic stability in human hepatocytes; type: in vitro ADME
Description: as §1

[4] = Metabolic stability in human hepatocytes; type: in vitro ADME; conditions: human hepatocytes
Description: as §1

in vitro = conditions: dog, MDCK, MDCK cells
MDCK cell permeability = conditions: dog, MDCK
MDCK cells = assay: MDCK cell permeability; conditions: MDCK cell line, 0.5% BSA

SMILES: CC12CCC(=O)C=C1CCCC2n1cc(-c2ccccc2)nn1 (stereo not drawn) [Compound 45, 4a-Methyl-5-(4-phenyl-1H-1,2,3-triazol-1-yl)-4,4a,5,6,7,8-hexahydronaphthalen-2(3H)-one]
- Remaining Percentage (%) (mouse hepatocytes; mouse boiled hepatocytes, 0 min): 100.00%
- Remaining Percentage (%) (mouse hepatocytes; mouse boiled hepatocytes, 15 min): 104.93%
- Remaining Percentage (%) (mouse hepatocytes; mouse boiled hepatocytes, 30 min): 101.77%
- Remaining Percentage (%) (mouse hepatocytes; mouse boiled hepatocytes, 60 min): 101.78%
- Remaining Percentage (%) (mouse hepatocytes; mouse boiled hepatocytes, 90 min): 101.42%
- Remaining Percentage (%) (mouse hepatocytes; mouse boiled hepatocytes, 120 min): 100.86%
- Hepatic Extraction Ratio (E) (mouse hepatocytes; mouse hepatocytes): 0.91
- Predicted hepatic CL (mouse hepatocytes; mouse hepatocytes): 81.91 mL/min/kg
- Remaining Percentage (%) (mouse hepatocytes; mouse hepatocytes, 0 min): 100.00%
- Remaining Percentage (%) (mouse hepatocytes; mouse hepatocytes, 15 min): 54.16%
- Remaining Percentage (%) (mouse hepatocytes; mouse hepatocytes, 30 min): 31.17%
- Remaining Percentage (%) (mouse hepatocytes; mouse hepatocytes, 60 min): 10.30%
- Remaining Percentage (%) (mouse hepatocytes; mouse hepatocytes, 90 min): 3.01%
- Remaining Percentage (%) (mouse hepatocytes; mouse hepatocytes, 120 min): 0.80%
- Metabolic Stability in Hepatocytes (60 min), compound remaining (mouse hepatocytes; mouse, 60 min): 10%
- hepatocyte CLint at 1 μM ([1]; read-out: In vitro Clint): 77.1 µL/min/1e6 cells
- CLint scaled at 1 µM ([1]; read-out: Scale-up Clint): 911 mL/min/kg
- half-life at 1 µM ([1]; mouse, hepatocytes, read-out: In vitro T1/2): 18 min
- logD [2]: 2.66
- IC50 (hERG channel): > 30 µM
- Hyperactive sperm motility in vivo (mouse sperm; capacitating medium 1 h): reduced
- Inhibition of total sperm motility in vivo (mouse sperm; cauda epididymis sperm, CASA): approximately 60%
- Stability [3]: Stability: 96% ^a
- Papp A→B (Caco-2 cell permeability; Caco-2, Caco-2 cell line, read-out: Permeability Papp (A-B)): 24 ×10⁻⁶ cm/s
- Papp A→B (Caco-2 cell permeability; Caco-2, Caco-2 cells, read-out: Papp (A-B)): 24 ×10⁻⁶ cm/s
- recovery (Caco-2 cell permeability; Caco-2, Caco-2 cells, read-out: Recovery (%) AP-BL): 64.3%
- recovery (Caco-2 cell permeability; Caco-2, Caco-2 cells, read-out: Recovery (%) BL-AP): 77.9%
- Papp B→A (Caco-2 cell permeability; Caco-2 cells): 11.8 ×10⁻⁶ cm/s
- efflux ratio (Caco-2 cell permeability; Caco-2 cells, Papp(B-A)/Papp(A-B)): 0.49
- Remaining Percentage (%) (human hepatocytes; human boiled hepatocytes, 0 min): 100.00%
- Remaining Percentage (%) (human hepatocytes; human boiled hepatocytes, 15 min): 105.47%
- Remaining Percentage (%) (human hepatocytes; human boiled hepatocytes, 30 min): 106.55%
- Remaining Percentage (%) (human hepatocytes; human boiled hepatocytes, 60 min): 108.22%
- Remaining Percentage (%) (human hepatocytes; human boiled hepatocytes, 90 min): 105.29%
- Remaining Percentage (%) (human hepatocytes; human boiled hepatocytes, 120 min): 107.99%
- Hepatic Extraction Ratio (E) (human hepatocytes; human hepatocytes): 0.82
- Predicted hepatic CL (human hepatocytes; human hepatocytes): 16.89 mL/min/kg
- Remaining Percentage (%) (human hepatocytes; human hepatocytes, 0 min): 100.00%
- Remaining Percentage (%) (human hepatocytes; human hepatocytes, 15 min): 83.47%
- Remaining Percentage (%) (human hepatocytes; human hepatocytes, 30 min): 64.22%
- Remaining Percentage (%) (human hepatocytes; human hepatocytes, 60 min): 39.26%
- Remaining Percentage (%) (human hepatocytes; human hepatocytes, 90 min): 22.24%
- Remaining Percentage (%) (human hepatocytes; human hepatocytes, 120 min): 11.51%
- Metabolic Stability in Hepatocytes (60 min), compound remaining (human hepatocytes; human, 60 min): 39%
- hepatocyte CLint at 1 μM ([4]; read-out: In vitro Clint): 36 µL/min/1e6 cells
- CLint scaled at 1 µM ([4]; read-out: Scale-up Clint): 91.7 mL/min/kg
- half-life at 1 µM ([4]; human, hepatocytes, read-out: In vitro T1/2): 38.5 min

SMILES: C[C@]12CC[C@H]3[C@@H](CC=C4C[C@@H](O)CC[C@@]43C)[C@@H]1CC[C@@H]2c1cn(Cc2ccccc2)nn1 [Compound 13, (3S,8S,9S,10R,13S,14S,17S)-17-(1-Benzyl-1H-1,2,3-triazol-4-yl)-10,13-dimethyl-2,3,4,7,8,9,10,11,12,13,14,15,16,17-tetradecahydro-1H-cyclopenta[a]phenanthren-3-ol]
- recovery (in vitro; Recovery (%) AP-BL): 70.2%
- recovery (in vitro; Recovery (%) BL-AP): 88.1%
- Papp B→A (MDCK cell permeability): 0.78 ×10⁻⁶ cm/s
- efflux ratio (MDCK cell permeability): 1.24
- Papp A→B (MDCK cell permeability; Papp (A-B), MDCK cells, BSA 0% for controls, 0.5% for 13): 0.63 ×10⁻⁶ cm/s
- Papp A→B (MDCK cell permeability; Permeability Papp (A-B), MDCK cell line, 0.5% BSA): 0.6 ×10⁻⁶ cm/s
- Permeability Papp (A-B) (MDCK cells): poor
